Assay results from patent US9926369B2, “Methods for treating hepatocellular cancer by administering an anti-Ang-2 antibody” (Regeneron Pharmaceuticals, Inc., priority 2009, dated 2018).

Experiments:
[1] = system: COLO 205 (Human Colorectal Adenocarcinoma Cell Line) tumors; assay: COLO 205 mouse tumor model; format: in vivo, mice
Method: Briefly, 2×10^6COLO 205 cells in 100 μl of serum-free medium were injected subcutaneously into the flank of 6-8 week old male NCr nude mice (Taconic, Hudson, N.Y.). After tumor volumes reached an average of about 150 mm^3, mice were randomized into groups for treatment with antibody or Fc protein. Mice in each treatment group were administered an anti-Ang-2 antibody or Fc protein at a concentration of 4 mg/kg via intraperitoneal injection twice per week for approximately two weeks. Tumor volumes were measured twice per week over the course of the experiment and tumor weights were measured upon excision of tumors at the conclusion of the experiment. Averages (mean+/−standard deviation) of tumor weight and growth were calculated for each treatment group. “Avg. Tumor Growth” represents the average growth from the time of treatment initiation (when tumors were approximately 150 mm^3). Percent decrease of tumor weight and growth are calculated from comparison to Fc protein measurements.
A similar experiment was carried out to assess the effect of H1H685P, in particular, on COLO 205 tumor growth. Briefly, 2×10^6 COLO 205 cells in 100 μl of serum-free medium were implanted subcutaneously into the right hind flank of 9-11 week-old male SCID CB17 mice. When the tumors reached ˜125 mm^3, mice were randomized into 5 groups (n=7-8 mice/group) and treated twice per week with Fc protein (15 mg/kg), H1H685P (5 or 25 mg/kg) or Control II (5 or 25 mg/kg) for a period of 19 days. Tumor volumes were measured twice per week over the course of the experiment and tumor weights were measured upon excision of tumors at the end of the experiment. Averages of tumor weight and growth from the beginning of treatment were calculated for each group. Percent decrease of tumor weight and growth are calculated from comparison to the Fc control group.
To determine the effect of combining an anti-Ang-2 antibody with a VEGF inhibitor on the growth of COLO 205 xenografts, 2×10^6 cells were implanted subcutaneously into the right hind flank of 6-8 week-old female SCID mice. When the tumors reached an average volume of ˜350 mm^3, mice were randomized into 4 groups (n=6 mice/group) and treated with: human Fc protein (7.5 mg/kg), H1H685P (5 mg/kg), VEGF Trap (see U.S. Pat. No. 7,087,411) (2.5 mg/kg) or the combination of H1H685P+VEGF Trap. Mice were given a total of 3 doses over 10 days of treatment. Tumor volumes were measured twice per week over the course of the experiment. Averages of tumor growth from the start of treatment (mean+/−standard deviation) were calculated for each treatment group. Percent decrease of tumor growth was calculated from comparison to the Fc control group.
To test the effect of H1H685P in combination with a chemotherapeutic agent on tumor growth, 2.5×10^6 COLO 205 tumor cells were implanted subcutaneously into the right hind flank of 8-9 week-old male SCID mice. When the tumors reached an average volume of ˜150 mm^3 (day 17 after implantation), mice were randomized into 4 groups (n=5 mice/group) and treated as follows: the first group was treated sc with 15 mg/kg hFc and intraperitoneally (ip) with 5-FU vehicle; the second group was treated sc with 15 mg/kg of H1H685P; the third group was treated ip with 75 mg/kg of 5-FU; the fourth group was treated with the combination of 15 mg/kg H1H685P sc plus 75 mg/kg 5-FU ip. Mice received a total of three treatments, administered every 3-4 days. Tumor volumes were measured twice per week over the course of the experiment. Average (mean+/−standard deviation) tumor growth from the beginning of treatment until day 38 was calculated for each group. Percent decrease of tumor growth was calculated from comparison to the control group.

[2] = target: hBA2 (Homo sapiens, UniProt O15123); assay: SPR binding to human bow-Ang-2 tetrameric construct (hBA2)
hBA2, sequence (O15123 with tags, fused parts or gaps): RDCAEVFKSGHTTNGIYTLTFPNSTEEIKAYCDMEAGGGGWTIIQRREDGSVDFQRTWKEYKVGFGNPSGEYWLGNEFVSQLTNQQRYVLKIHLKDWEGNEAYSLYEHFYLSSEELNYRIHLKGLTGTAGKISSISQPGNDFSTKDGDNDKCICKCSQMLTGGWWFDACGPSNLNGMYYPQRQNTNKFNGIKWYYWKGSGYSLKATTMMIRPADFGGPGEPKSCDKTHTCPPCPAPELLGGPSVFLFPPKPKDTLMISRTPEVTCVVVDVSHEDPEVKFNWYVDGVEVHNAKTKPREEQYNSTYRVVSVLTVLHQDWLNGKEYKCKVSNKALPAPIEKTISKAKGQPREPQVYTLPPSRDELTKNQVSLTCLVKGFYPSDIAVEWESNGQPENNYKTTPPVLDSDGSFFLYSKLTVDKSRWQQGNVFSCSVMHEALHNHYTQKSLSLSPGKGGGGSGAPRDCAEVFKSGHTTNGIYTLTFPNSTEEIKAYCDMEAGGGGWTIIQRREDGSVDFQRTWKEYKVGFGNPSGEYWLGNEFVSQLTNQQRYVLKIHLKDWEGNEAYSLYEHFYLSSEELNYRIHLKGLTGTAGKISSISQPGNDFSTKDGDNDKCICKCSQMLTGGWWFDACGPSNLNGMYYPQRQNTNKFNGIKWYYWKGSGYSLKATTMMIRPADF

[3] = target: Dimeric Human Ang-2FD-mFc (Homo sapiens, UniProt O15123); assay: Cross-species SPR binding at 25° C. or 37° C., human Ang-2FD-mFc
Dimeric Human Ang-2FD-mFc, sequence (O15123 with tags, fused parts or gaps): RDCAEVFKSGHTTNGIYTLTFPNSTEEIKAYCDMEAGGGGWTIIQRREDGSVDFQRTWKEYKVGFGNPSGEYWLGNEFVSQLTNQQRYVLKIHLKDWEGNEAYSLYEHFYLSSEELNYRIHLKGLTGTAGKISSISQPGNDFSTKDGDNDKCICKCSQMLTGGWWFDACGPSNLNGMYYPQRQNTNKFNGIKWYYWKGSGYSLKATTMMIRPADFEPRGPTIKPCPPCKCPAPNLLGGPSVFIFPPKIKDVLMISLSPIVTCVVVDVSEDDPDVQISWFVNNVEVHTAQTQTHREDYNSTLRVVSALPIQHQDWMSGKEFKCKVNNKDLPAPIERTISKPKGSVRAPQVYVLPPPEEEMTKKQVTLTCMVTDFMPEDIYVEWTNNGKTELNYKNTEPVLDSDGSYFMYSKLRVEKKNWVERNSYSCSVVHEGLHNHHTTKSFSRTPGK
Method: Additional binding experiments were conducted using selected anti-Ang-2 antibodies at two different temperatures to further assess cross-species affinity. Each selected antibody or control construct was captured at a flow rate of 40 μL/min for 1 minute on a goat anti-human kappa polyclonal antibody surface created through direct chemical coupling to a BIACORE™ chip to form a captured antibody surface. Human, monkey and mouse Ang-2FD-Fc at a concentration of 25 nM or 0.78 nM was injected over the captured antibody surface at a flowrate of 60 μL/min for 3 minutes, and antigen-antibody dissociation was monitored in real time for 20 minutes at either 25° C. or 37° C.

[4] = system: PC3 (Human Prostate Cancer Cell Line) tumors; assay: PC3 mouse tumor model; format: in vivo, NCr nude mice
Method: Briefly, 5×10^6 PC3 cells in 100 μl of growth factor-reduced Matrigel (BD Biosciences) were injected subcutaneously into the flanks of 6-8 week old male NCr nude mice (Taconic, Hudson, N.Y.). After tumor volumes reached an average of about 200 mm^3, mice were randomized into groups for treatment. […] Tumor volumes were measured twice per week over the course of the experiment and tumor weights were measured upon excision of tumors at the conclusion of the experiment. Averages (mean+/−standard deviation) of tumor weight and growth were calculated for each treatment group. Percent decrease of tumor weight and growth were calculated from comparison to Fc protein measurements.

[5] = system: COLO 205 tumor vessel perfusion; assay: Tumor perfusion by contrast-enhanced micro-ultrasound, COLO 205 tumors; format: in vivo, mice; details: treated for 24 hrs
Method: To determine whether the combination of H1H685P+VEGF Trap has a greater effect on tumor vessel function than the single agents, a micro-ultrasound (VisualSonics' Vevo 770 imaging system) was used to assess changes in tumor perfusion. COLO 205 tumors were grown to ˜125 mm^3 and mice were then treated for 24 hrs with H1H685P, VEGF Trap or the combination of both agents. Following treatment, tumor vessel perfusion was determined based on contrast-enhanced micro-ultrasound 2D image acquisition and analysis of a “wash-in” curve, which represents the amount of contrast agent entering the tumor. Average (mean+/−standard deviation) tumor perfusion was calculated for each group. Percent decrease was calculated from comparison to the Fc control group.

[6] = COLO 205, SCID CB17 mice, 5 mg/kg twice per week, 19 days
[7] = COLO 205, SCID CB17 mice, 25 mg/kg twice per week, 19 days
[8] = COLO 205, female SCID mice, H1H685P 5 mg/kg, VEGF Trap 2.5 mg/kg, 3 doses over 10 days
[9] = COLO 205, male SCID mice, H1H685P 15 mg/kg sc, 5-FU 75 mg/kg ip, three treatments, until day 38
[10] = PC3, 2.5 mg/kg subcutaneous twice per week
[11] = PC3, 10 mg/kg intraperitoneal twice per week, vs Fc protein
[12] = PC3, 12.5 mg/kg subcutaneous twice per week
[13] = PC3, 25 mg/kg subcutaneous twice per week

## H1H685P: human anti-Ang-2 antibody, HCVR/LCVR SEQ ID NOs 18/20; also referred to as mAb1 [Antibody H1H685P]
[1]; [6]
  % Decrease in Tumor Growth: 45%
  % Decrease in Tumor Weight: 43%
  Avg Tumor Growth: 370 ± 114 mm^3
  Avg Tumor Weight: 0.458 ± 0.125 g
[1]; [7]
  % Decrease in Tumor Growth: 56%
  % Decrease in Tumor Weight: 46%
  Avg Tumor Growth: 295 ± 160 mm^3
  Avg Tumor Weight: 0.430 ± 0.139 g
[1]; [8]
  % Decrease in Tumor Growth: 80%
  Avg Tumor Growth: 74 ± 77 mm^3
[1]; [9]
  % Decrease in Tumor Growth: 29%
  Avg Tumor Growth: 405 ± 80 mm^3
[1]; mouse, in vivo
  Anti-tumor activities in the COLO 205 mouse model (in words): substantial anti-tumor activities
[2]
  Kd: 11.9 pM
[3]; 25° C.
  Kd: 11.7 pM
[3]; 37° C.
  Kd: 27 pM
[4]; [10]
  % Decrease in Tumor Growth: 70%
  Avg Tumor Growth: 308 ± 274 mm^3
[4]; PC3, 10 mg/kg intraperitoneal twice per week, approximately three weeks, mean ± SD
  Avg Tumor Weight: 0.44 ± 0.12 g
[4]; PC3, 10 mg/kg intraperitoneal twice per week, mean ± SD
  Avg Tumor Growth: 305 ± 143 mm^3
[4]; [11]
  % Decrease in Tumor Growth: 40%
  % Decrease in Tumor Weight: 33%
[4]; [12]
  % Decrease in Tumor Growth: 47%
  Avg Tumor Growth: 550 ± 150 mm^3
[4]; [13]
  % Decrease in Tumor Growth: 60%
  Avg Tumor Growth: 413 ± 208 mm^3
[4]; as compared to the control constructs
  Anti-tumor activity in the PC3 mouse tumor model (in words): especially marked anti-tumor activity
[5]; mean ± SD
  Relative Tumor Perfusion: 6.32 ± 2.81
[5]; vs Fc control
  % Decrease in Tumor Perfusion: 22%
